Measured values: patent US20100179209A1, “Pactimibe medicaments for preventing/treating a disease due to sebaceous gland dysfunction in humans or animals” (GALDERMA RESEARCH & DEVELOPMENT, priority 2007, published 2010)

Tests used:
[1] = tested on: ACAT/SOAT enzyme; test: Measurement of ACAT/SOAT activity (NBD-cholesterol fluorescence assay in HepG2 cells); type: cell-based; settings: NBD-cholesterol 1 μg/ml, incubation 6 h at 37° C., read-out: inhibition of cholesterol ester synthesis, IC50
Source text: Measurement of ACAT/SOAT Activity:
The objective of this test is to visualize the activity of the ACAT/SOAT enzyme on the synthesis of cholesterol esters.
The test is based on the following publication: “Identification of ACAT1- and ACAT2-specific inhibitors using a novel, cell based fluorescence assay: individual ACAT uniqueness”, J. Lipid Res., (2004) vol. 45, pages 378-386.
The principle of this test is based on the use of NBD-cholesterol, which is a cholesterol analogue of which the fluorescence is dependent on its environment. When said analogue is in a polar environment, it is weakly fluorescent, whereas in a non-polar environment, it is strongly fluorescent. Free NBD-cholesterol is localized in the cell membranes and is weakly fluorescent in this polar environment. When NBD-cholesterol is esterified by ACAT, the NBD-cholesterol ester is localized in non-polar lipid droplets and is therefore strongly fluorescent.
HepG2 cells are incubated in the presence of NBD-cholesterol (1 μg/ml) and of the test product in transparent-bottomed black 96-well plates at a rate of 30 000 cells per well. […] After the addition of 50 μl of lysis buffer (10 mM NaPO4, 1% Igepal), the plates are shaken for 5 min and read by fluorescence (excitation 490 nm, emission 540 nm) on the Fusion instrument (Perkin Elmer).

[2] = Study of the properties of pactimibe: toxicity
[3] = tested on: sebaceous glands; test: Study of the properties of pactimibe: sebum production by the sebaceous glands
[4] = tested on: sebum production; settings: administration of isotretinoin, current treatment; cited from earlier work

Compound | IC50 [1] [nM] | toxicity [2] | sebum production by the sebaceous glands [3] | decrease of sebum production [4] [%] | side effects [4]
CCCCCCCCN1CCc2c(C)c(CC(=O)O)c(C)c(NC(=O)C(C)(C)C)c21 [pactimibe, N-(1-octyl-5-carboxymethyl-4,6-dimethylindolin-7-yl)-2,2-dimethylpropanamide] | 50 | not toxic | reduce sebum production | – | –
CC1=C(/C=C/C(C)=C/C=C/C(C)=C\C(=O)O)C(C)(C)CCC1 [isotretinoin] | – | – | – | ~90 | considerable side effects
